In patent US10261017B2, “Methods for detecting and categorizing skin sensitizers” (University of Mississippi, priority 2014, dated 2019):

test system: ARE-dependent gene activity in a recombinant cell line; assay: not given; conditions: published literature (Table 1); cited from earlier work

SMILES	KeratinoSens ™ EC3
CC(C)=CCCC(C)=CC=O [Citral]	67.36 µM

same assay, conditions: reported results (Table 7); cited from earlier work

SMILES	KeratinoSens ™ EC3
CCCCBr [1-Bromobutane]	>2000 µM
CC(C)=CCCC(C)=CCCC(C)=CC=O [Farnesal]	>2000 µM
O=[N+]([O-])c1ccc(Cl)c([N+](=O)[O-])c1 [1-Chloro-2,4-dinitrobenzene]	3.89 µM
O=C(O)c1ccccc1O [Salicylic acid]	>2000 µM
COc1cc(C=O)ccc1O [Vanillin]	>2000 µM
CC(O)C(=O)O (stereo not shown) [Lactic acid]	>2000 µM
Nc1ccccc1 [Aniline]	>2000 µM
CC(C)=CCCC(C)=CC=O [Citral]	67.36 µM

test system: not given; assay: not given; conditions: effective concentration, published literature (Table 1); cited from earlier work

SMILES	LLNA (EC3)
CC1=C(C=O)C(C)(C)CC=C1 [Safranal]	7.5%
CC(C)=CCCC(C)=CC=O [Citral]	9.2%

same assay, conditions: published literature; cited from earlier work

SMILES	LLNA Classification
CC1=C(C=O)C(C)(C)CC=C1 [Safranal]	Moderate
CC(C)=CCCC(C)=CC=O [Citral]	Moderate

same assay, conditions: reported results (Table 7); cited from earlier work

SMILES	LLNA EC3
CC1=C(C=O)C(C)(C)CC=C1 [Safranal]	7.5%
CC=CC(=O)CC [4-Hex-3-en-one]	4.2%
CC(C)=CCCC(C)=CC=O [Citral]	9.2%

test system: not listed separately; assay: NMR method: depletion of electrophile signal on reaction with DCYA; conditions: not given
From the text: The described example can be applied to pure chemicals and mixtures. The method includes the acquisition of at least one NMR spectrum, mixing an electrophile and a nucleophile to acquire an array of control spectra and an addition of catalyst to record an array of reaction spectra. It also includes the quantification of at least one signal and the comparison of the signal with a control and the classification of the reaction based on the depletion of potential sensitizer based on the quantified residual signal.
2,5-Dimethylfuran was used as internal standard. When necessary, characterization of the product(s) formed during the reaction(s) was performed by homonuclear ^1H connectivities using 2D-COSY experiments. […] Two- and three bond ^1H-^13C connectivities were determined by gradient-HMBC experiments in which the evolution period for long-range ^1H-^13C coupling constants was optimized for a ^2,3JC,H of 8 Hz. Through-space ^1H connectivities were determined using a NOESY experiment with a mixing time of 0.450 s. […] Toronto, Canada].
In a 3 mm NMR tube, 1 volume of DCYA (100) mM in CDCl3) was mixed with one volume of sensitizer (100 mM in CDCl3) to give a final concentration of 50 mM for both DCYA and the sensitizer. Control ^1H NMR spectra (reference spectra) were recorded at regular intervals of for a minimum of 5 min. […] All spectra were recorded at constant temperature. All experiments were conducted using the manufacturer's standard presaturation pulse programs and experimental conditions were chosen as explained in NMR spectroscopy section. The progress of the reaction was followed by the diminished peak areas of the resonances for the signal of interest. The spectra were phased, referenced, and integrated using NMR data elaboration software. The structural characterizations of the resulting adducts were confirmed by conducting additional 2D-NMR experiments when necessary.
Covalent reaction of DCYA with carvone is dependent on the activation of the nucleophilic group (ex. sulfhydryl group to the reactive thio-anion) under basic conditions. This reaction is strongly dependent on the nature of the nucleophile and may be modulated by careful choice of the model nucleophile and the reaction conditions.
The control spectra are used as reference spectra (FIG. 3A). All the spectra were subjected to automatic phase and baseline correction using a Bernstein polynomial fit (order 3). After these two steps, all the spectra were integrated over the areas of interest. […] Both vinylic and adduct peak areas were normalized relative to the internal standard signal peaks. […] The concentrations of both electrophile and adduct were then plotted as percentage against time (in minutes). (FIG. 5).

SMILES	NMR assay reactivity / classification in words
CC1=C(C=O)C(C)(C)CC=C1 [Safranal]	less reactive by NMR in the short time frame
CC(C)=CCCC(C)=CC=O [Citral]	moderate/low electrophilic behavior

same assay, conditions: 30 min, 50 mM

SMILES	Conversion at t30 (depletion of electrophile signal)
CC(C)=CCCC(C)=CC=O [Citral]	29%

same assay, conditions: 90 min, 50 mM

SMILES	NMR Method conversion
CC(C)=CCCC(C)=CC=O [Citral]	29%

same assay, conditions: at 30 min; 1 equiv. DCYA

SMILES	Conversion at t30 (depletion of electrophile signal)
CC1=C(C=O)C(C)(C)CC=C1 [Safranal]	3%

same assay, conditions: based on depletion of electrophile signal at 30 min

SMILES	NMR Classification
CC1=C(C=O)C(C)(C)CC=C1 [Safranal]	Non
CC(C)=CCCC(C)=CC=O [Citral]	Weak-moderate

same assay, conditions: conversion of test chemical at 90 min; 1 equiv. DCYA, 0.1 equiv. DBN, CDCl3

SMILES	NMR Method conversion
CC1=C(C=O)C(C)(C)CC=C1 [Safranal]	4%

test system: not listed separately; assay: Microplate spectrophotometric method (DCYA assay), fluorescence end-point; conditions: RI = reactivity index; 2 equiv. electrophile, pH 10 buffer

SMILES	DCYA 100-RI
CC1=C(C=O)C(C)(C)CC=C1 [Safranal]	82.9
CC=CC(=O)CC [4-Hex-3-en-one]	2.8
O=C(O)c1ccccc1O [Salicylic acid]	106.9
COc1cc(C=O)ccc1O [Vanillin]	106.4
CC(O)C(=O)O (stereo not shown) [Lactic acid]	100.1
CC(C)=CCCC(C)=CC=O [Citral]	88.8

same assay, conditions: after 24 h of incubation

SMILES	DCYA adduct after long incubation
CCCCBr [1-Bromobutane]	minor DCYA adduct

same assay, conditions: false negative

SMILES	DCYA binary classification: FN
CC1=C(C=O)C(C)(C)CC=C1 [Safranal]	0
CC=CC(=O)CC [4-Hex-3-en-one]	0
CCCCBr [1-Bromobutane]	0
O=[N+]([O-])c1ccc(Cl)c([N+](=O)[O-])c1 [1-Chloro-2,4-dinitrobenzene]	1
O=C(O)c1ccccc1O [Salicylic acid]	0
COc1cc(C=O)ccc1O [Vanillin]	0
CC(O)C(=O)O (stereo not shown) [Lactic acid]	0
CC(C)=CCCC(C)=CC=O [Citral]	0

same assay, conditions: false positive

SMILES	DCYA binary classification: FP
CC1=C(C=O)C(C)(C)CC=C1 [Safranal]	0
CC=CC(=O)CC [4-Hex-3-en-one]	0
CCCCBr [1-Bromobutane]	0
O=[N+]([O-])c1ccc(Cl)c([N+](=O)[O-])c1 [1-Chloro-2,4-dinitrobenzene]	0
O=C(O)c1ccccc1O [Salicylic acid]	0
COc1cc(C=O)ccc1O [Vanillin]	0
CC(O)C(=O)O (stereo not shown) [Lactic acid]	0
CC(C)=CCCC(C)=CC=O [Citral]	0

same assay, conditions: microplate spectrophotometric method

SMILES	DCYA assay reactivity / classification in words
CCCCBr [1-Bromobutane]	non-reactive

same assay, conditions: true negative

SMILES	DCYA binary classification: TN
CC1=C(C=O)C(C)(C)CC=C1 [Safranal]	0
CC=CC(=O)CC [4-Hex-3-en-one]	0
CCCCBr [1-Bromobutane]	1
O=[N+]([O-])c1ccc(Cl)c([N+](=O)[O-])c1 [1-Chloro-2,4-dinitrobenzene]	0
O=C(O)c1ccccc1O [Salicylic acid]	1
COc1cc(C=O)ccc1O [Vanillin]	1
CC(O)C(=O)O (stereo not shown) [Lactic acid]	1
CC(C)=CCCC(C)=CC=O [Citral]	0

same assay, conditions: true positive; positive if 100-RI <95

SMILES	DCYA binary classification: TP
CC1=C(C=O)C(C)(C)CC=C1 [Safranal]	1
CC=CC(=O)CC [4-Hex-3-en-one]	1
CCCCBr [1-Bromobutane]	0
O=[N+]([O-])c1ccc(Cl)c([N+](=O)[O-])c1 [1-Chloro-2,4-dinitrobenzene]	0
O=C(O)c1ccccc1O [Salicylic acid]	0
COc1cc(C=O)ccc1O [Vanillin]	0
CC(O)C(=O)O (stereo not shown) [Lactic acid]	0
CC(C)=CCCC(C)=CC=O [Citral]	1

test system: thiol peptide; assay: Cys-DPRA (Direct Peptide Reactivity Assay), literature data; conditions: false negative

SMILES	Cys-DPRA binary classification: FN
CC1=C(C=O)C(C)(C)CC=C1 [Safranal]	0
CC=CC(=O)CC [4-Hex-3-en-one]	0
CCCCBr [1-Bromobutane]	0
CC(C)=CCCC(C)=CCCC(C)=CC=O [Farnesal]	0
O=[N+]([O-])c1ccc(Cl)c([N+](=O)[O-])c1 [1-Chloro-2,4-dinitrobenzene]	0
O=C(O)c1ccccc1O [Salicylic acid]	0
COc1cc(C=O)ccc1O [Vanillin]	0
CC(O)C(=O)O (stereo not shown) [Lactic acid]	0
CC(C)=CCCC(C)=CC=O [Citral]	0

same assay, conditions: false positive

SMILES	Cys-DPRA binary classification: FP
CC1=C(C=O)C(C)(C)CC=C1 [Safranal]	0
CC=CC(=O)CC [4-Hex-3-en-one]	0
CCCCBr [1-Bromobutane]	1
CC(C)=CCCC(C)=CCCC(C)=CC=O [Farnesal]	0
O=[N+]([O-])c1ccc(Cl)c([N+](=O)[O-])c1 [1-Chloro-2,4-dinitrobenzene]	0
O=C(O)c1ccccc1O [Salicylic acid]	0
COc1cc(C=O)ccc1O [Vanillin]	0
CC(O)C(=O)O (stereo not shown) [Lactic acid]	0
CC(C)=CCCC(C)=CC=O [Citral]	0

same assay, conditions: true negative

SMILES	Cys-DPRA binary classification: TN
CC1=C(C=O)C(C)(C)CC=C1 [Safranal]	0
CC=CC(=O)CC [4-Hex-3-en-one]	0
CCCCBr [1-Bromobutane]	0
CC(C)=CCCC(C)=CCCC(C)=CC=O [Farnesal]	0
O=[N+]([O-])c1ccc(Cl)c([N+](=O)[O-])c1 [1-Chloro-2,4-dinitrobenzene]	0
O=C(O)c1ccccc1O [Salicylic acid]	1
COc1cc(C=O)ccc1O [Vanillin]	1
CC(O)C(=O)O (stereo not shown) [Lactic acid]	1
CC(C)=CCCC(C)=CC=O [Citral]	0

same assay, conditions: true positive

SMILES	Cys-DPRA binary classification: TP
CC1=C(C=O)C(C)(C)CC=C1 [Safranal]	1
CCCCBr [1-Bromobutane]	0
CC(C)=CCCC(C)=CCCC(C)=CC=O [Farnesal]	1
O=[N+]([O-])c1ccc(Cl)c([N+](=O)[O-])c1 [1-Chloro-2,4-dinitrobenzene]	1
O=C(O)c1ccccc1O [Salicylic acid]	0
COc1cc(C=O)ccc1O [Vanillin]	0
CC(O)C(=O)O (stereo not shown) [Lactic acid]	0
CC(C)=CCCC(C)=CC=O [Citral]	1

test system: thiol peptide; assay: not given; conditions: adopted from the literature; cited from earlier work

SMILES	Cys-DPRA, percentage of thiol peptide depleted
CC1=C(C=O)C(C)(C)CC=C1 [Safranal]	90.5^15%

same assay, conditions: literature; cited from earlier work

SMILES	Cys-DPRA reactivity in words
CCCCBr [1-Bromobutane]	minimal reaction

same assay, conditions: reported results from the literature; cited from earlier work

SMILES	Cys-DPRA % Pept. remain.
CC1=C(C=O)C(C)(C)CC=C1 [Safranal]	9.5%
CC(C)=CCCC(C)=CCCC(C)=CC=O [Farnesal]	83.6%
O=[N+]([O-])c1ccc(Cl)c([N+](=O)[O-])c1 [1-Chloro-2,4-dinitrobenzene]	0%
COc1cc(C=O)ccc1O [Vanillin]	96.8%
Nc1ccccc1 [Aniline]	100%
